This is an account of results in paper PMC7345083, “Vancomycin-Lipopeptide Conjugates with High Antimicrobial Activity on Vancomycin-Resistant Enterococci” (Pharmaceuticals, 2020).

This assay has as its system Enterococcus faecium UL602570 (vanA, clinical isolate). The class given is cell-based. Particulars: UL602570 (vanA, clinical isolate, 18 h). As for the experimental part:
The minimum inhibitory concentration (MIC) was determined by microdilution following the EUCAST and CLSI guidelines via the broth microdilution assay on a 96-well plate. Substances were dissolved in saline solution (0.9%) at a concentration equimolar to 1.28 mg/mL vancomycin. With an increasing hydrophobicity, some substances had to be pre-dissolved in DMSO. The final concentration of DMSO remained below 1.5% and was compared to the DMSO control (no antimicrobial effect was observed up to the highest concentration tested (10%)). All substances were serially diluted on the 96-well plate using Mueller-Hinton-Broth II (cation adjusted). Vancomycin was always used as a control. For bacterial loading, an overnight culture of the referring strain was taken and adjusted to a turbidity corresponding to 10^8 cfu/mL. The bacterial suspension was further diluted to load a bacterial number of 10^6 cfu/mL on the 96-well plate and incubate it for 18 h at 35 ± 1 °C, as described before. MIC was defined as the lowest concentration without visible growth.

Each structure is given as a SMILES string. Converted amounts (≈) assume the structure as drawn.

Turning to `CCCCCCCCCCCCCC(=O)N[C@@H](CCCNC(=N)N)C(=O)N[C@@H](CCCNC(=N)N)C(=O)N[C@@H](CCCNC(=N)N)C(=O)N[C@@H](CSC1CC(=O)N(CC2CCC(C(=O)N(C)[C@H](CC(C)C)C(=O)N[C@H]3C(=O)N[C@@H](CC(N)=O)C(=O)N[C@H]4C(=O)N[C@H]5C(=O)N[C@H](C(=O)N[C@H](C(=O)O)c6cc(O)cc(O)c6-c6cc5ccc6O)[C@H](O)c5ccc(c(Cl)c5)Oc5cc4cc(c5O[C@@H]4O[C@H](CO)[C@@H](O)[C@H](O)[C@H]4O[C@H]4C[C@](C)(N)[C@H](O)[C@H](C)O4)Oc4ccc(cc4Cl)[C@H]3O)CC2)C1=O)C(N)=O` (stereo partly drawn) [VN-R3C-C14], the MIC median came out at 2.41 µg/mL (≈ 0.977 µM) and the MIC range was 2.41 to 4.81 µg/mL.

As to `CCCCCCCCCCCCCCCCCC(=O)N[C@@H](CCCNC(=N)N)C(=O)N[C@@H](CCCNC(=N)N)C(=O)N[C@@H](CCCNC(=N)N)C(=O)N[C@@H](CSC1CC(=O)N(CC2CCC(C(=O)N(C)[C@H](CC(C)C)C(=O)N[C@H]3C(=O)N[C@@H](CC(N)=O)C(=O)N[C@H]4C(=O)N[C@H]5C(=O)N[C@H](C(=O)N[C@H](C(=O)O)c6cc(O)cc(O)c6-c6cc5ccc6O)[C@H](O)c5ccc(c(Cl)c5)Oc5cc4cc(c5O[C@@H]4O[C@H](CO)[C@@H](O)[C@H](O)[C@H]4O[C@H]4C[C@](C)(N)[C@H](O)[C@H](C)O4)Oc4ccc(cc4Cl)[C@H]3O)CC2)C1=O)C(N)=O` (stereo partly drawn) [VN-R3C-C18], the MIC median stood at 4.97 µg/mL (≈ 1.97 µM) and the MIC range lay in the range of 2.48 to 4.97 µg/mL.

Molecule `CN[C@H](CC(C)C)C(=O)N[C@H]1C(=O)N[C@@H](CC(N)=O)C(=O)N[C@H]2C(=O)N[C@H]3C(=O)N[C@H](C(=O)N[C@H](C(=O)NCCNC(=O)C4CCC(CN5C(=O)CC(SC[C@H](NC(=O)[C@H](CCCNC(=N)N)NC(=O)[C@H](CCCNC(=N)N)NC(=O)[C@@H](N)CCCNC(=N)N)C(N)=O)C5=O)CC4)c4cc(O)cc(O)c4-c4cc3ccc4O)[C@H](O)c3ccc(c(Cl)c3)Oc3cc2cc(c3O[C@@H]2O[C@H](CO)[C@@H](O)[C@H](O)[C@H]2O[C@H]2C[C@](C)(N)[C@H](O)[C@H](C)O2)Oc2ccc(cc2Cl)[C@H]1O` (stereo partly drawn) [VC-R3C] came in with an MIC median of 34.75 µg/mL (≈ 15.1 µM) and an MIC range of 17.38 to 34.75 µg/mL.

Take `CCCCCCCCCCCCCCCC(=O)N[C@@H](CCCNC(=N)N)C(=O)N[C@@H](CCCNC(=N)N)C(=O)N[C@@H](CCCNC(=N)N)C(=O)N[C@@H](CSC1CC(=O)N(CC2CCC(C(=O)NCCNC(=O)[C@H]3NC(=O)[C@H]4NC(=O)[C@H](NC(=O)[C@@H]5NC(=O)[C@H](CC(N)=O)NC(=O)[C@H](NC(=O)[C@@H](CC(C)C)NC)[C@H](O)c6ccc(c(Cl)c6)Oc6cc5cc(c6O[C@@H]5O[C@H](CO)[C@@H](O)[C@H](O)[C@H]5O[C@H]5C[C@](C)(N)[C@H](O)[C@H](C)O5)Oc5ccc(cc5Cl)[C@H]4O)c4ccc(O)c(c4)-c4c(O)cc(O)cc43)CC2)C1=O)C(N)=O` (stereo partly drawn) [VC-R3C-C16]: the MIC median was determined as 5.00 µg/mL (≈ 1.97 µM) and the MIC range lay in the range of 5.00 to 10.00 µg/mL.

As to `CCCCCCCC(=O)N[C@@H](CCCNC(=N)N)C(=O)N[C@@H](CCCNC(=N)N)C(=O)N[C@@H](CCCNC(=N)N)C(=O)N[C@@H](CSC1CC(=O)N(CC2CCC(C(=O)N(C)[C@H](CC(C)C)C(=O)N[C@H]3C(=O)N[C@@H](CC(N)=O)C(=O)N[C@H]4C(=O)N[C@H]5C(=O)N[C@H](C(=O)N[C@H](C(=O)O)c6cc(O)cc(O)c6-c6cc5ccc6O)[C@H](O)c5ccc(c(Cl)c5)Oc5cc4cc(c5O[C@@H]4O[C@H](CO)[C@@H](O)[C@H](O)[C@H]4O[C@H]4C[C@](C)(N)[C@H](O)[C@H](C)O4)Oc4ccc(cc4Cl)[C@H]3O)CC2)C1=O)C(N)=O` (stereo partly drawn) [VN-R3C-C8], the MIC median is 18.31 µg/mL (≈ 7.68 µM) and the MIC range was 9.16 to 18.31 µg/mL.

Take `CCCCCCCC(=O)N[C@@H](CCCNC(=N)N)C(=O)N[C@@H](CCCNC(=N)N)C(=O)N[C@@H](CCCNC(=N)N)C(=O)N[C@@H](CSC1CC(=O)N(CC2CCC(C(=O)NCCN[C@@]3(C)C[C@H](O[C@H]4[C@H](Oc5c6cc7cc5Oc5ccc(cc5Cl)[C@@H](O)[C@@H](NC(=O)[C@@H](CC(C)C)NC)C(=O)N[C@@H](CC(N)=O)C(=O)N[C@H]7C(=O)N[C@H]5C(=O)N[C@H](C(=O)N[C@H](C(=O)O)c7cc(O)cc(O)c7-c7cc5ccc7O)[C@H](O)c5ccc(c(Cl)c5)O6)O[C@H](CO)[C@@H](O)[C@@H]4O)O[C@@H](C)[C@H]3O)CC2)C1=O)C(N)=O` (stereo partly drawn) [VV-R3C-C8]: the MIC median came to 1.49 µg/mL (≈ 0.614 µM) and the MIC range was 0.30 to 2.39 µg/mL.

With `CCCCCCCCCC(=O)N[C@@H](CCCNC(=N)N)C(=O)N[C@@H](CCCNC(=N)N)C(=O)N[C@@H](CCCNC(=N)N)C(=O)N[C@@H](CSC1CC(=O)N(CC2CCC(C(=O)NCCNC(=O)[C@H]3NC(=O)[C@H]4NC(=O)[C@H](NC(=O)[C@@H]5NC(=O)[C@H](CC(N)=O)NC(=O)[C@H](NC(=O)[C@@H](CC(C)C)NC)[C@H](O)c6ccc(c(Cl)c6)Oc6cc5cc(c6O[C@@H]5O[C@H](CO)[C@@H](O)[C@H](O)[C@H]5O[C@H]5C[C@](C)(N)[C@H](O)[C@H](C)O5)Oc5ccc(cc5Cl)[C@H]4O)c4ccc(O)c(c4)-c4c(O)cc(O)cc43)CC2)C1=O)C(N)=O` (stereo partly drawn) [VC-R3C-C10], the MIC median is 4.77 µg/mL (≈ 1.94 µM) and the MIC range lay within 4.77 to 9.53 µg/mL.

In the case of `CCCCCCCCCCCCCC(=O)N[C@@H](CCCNC(=N)N)C(=O)N[C@@H](CCCNC(=N)N)C(=O)N[C@@H](CCCNC(=N)N)C(=O)N[C@@H](CSC1CC(=O)N(CC2CCC(C(=O)NCCN[C@@]3(C)C[C@H](O[C@H]4[C@H](Oc5c6cc7cc5Oc5ccc(cc5Cl)[C@@H](O)[C@@H](NC(=O)[C@@H](CC(C)C)NC)C(=O)N[C@@H](CC(N)=O)C(=O)N[C@H]7C(=O)N[C@H]5C(=O)N[C@H](C(=O)N[C@H](C(=O)O)c7cc(O)cc(O)c7-c7cc5ccc7O)[C@H](O)c5ccc(c(Cl)c5)O6)O[C@H](CO)[C@@H](O)[C@@H]4O)O[C@@H](C)[C@H]3O)CC2)C1=O)C(N)=O` (stereo partly drawn) [VV-R3C-C14], the MIC median was 0.46 µg/mL (≈ 0.183 µM) and the MIC range is 0.31 to 0.62 µg/mL.

`CCCCCC(=O)N[C@@H](CCCNC(=N)N)C(=O)N[C@@H](CCCNC(=N)N)C(=O)N[C@@H](CCCNC(=N)N)C(=O)N[C@@H](CSC1CC(=O)N(CC2CCC(C(=O)NCCN[C@@]3(C)C[C@H](O[C@H]4[C@H](Oc5c6cc7cc5Oc5ccc(cc5Cl)[C@@H](O)[C@@H](NC(=O)[C@@H](CC(C)C)NC)C(=O)N[C@@H](CC(N)=O)C(=O)N[C@H]7C(=O)N[C@H]5C(=O)N[C@H](C(=O)N[C@H](C(=O)O)c7cc(O)cc(O)c7-c7cc5ccc7O)[C@H](O)c5ccc(c(Cl)c5)O6)O[C@H](CO)[C@@H](O)[C@@H]4O)O[C@@H](C)[C@H]3O)CC2)C1=O)C(N)=O` (stereo partly drawn) [VV-R3C-C6] displayed an MIC median of 4.63 µg/mL (≈ 1.93 µM) and an MIC range of 2.31 to 9.25 µg/mL.
